In patent publication US10597388B2, “Pyridazinone herbicides” (FMC CORPORATION, priority 2014, dated 2020):

Key:
Assay in all cases: Test E greenhouse herbicide test, pre- and postemergence
Format in all cases: in vivo
[1] = tested on: waterhemp (common waterhemp, Amaranthus rudis)
In short: (§1)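 Seeds were sown in silt loam and sprayed preemergence with compound in a non-phytotoxic solvent mix containing surfactant; for postemergence, plants at 2 to 18 cm (1- to 4-leaf stage) in peat-based potting medium were sprayed with the same formulation. After 14 to 21 d in a greenhouse, injury was rated visually against controls (0–100).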

[2] = tested on: nutsedge, yellow (yellow nutsedge, Cyperus esculentus); settings: Preemergence
In short: as §1

[3] = tested on: field bindweed (Convolvulus arvensis)
In short: as §1

[4] = tested on: surinam grass (Brachiaria decumbens); settings: Preemergence
In short: as §1

[5] = tested on: lambsquarters (Chenopodium album); settings: Preemergence
In short: as §1

[6] = tested on: sandbur (southem sandbur, Cenchrus echinatus)
In short: as §1

[7] = tested on: beggarticks (hairy beggarticks, Bidens pilosa)
In short: as §1

[8] = tested on: ragweed (common ragweed, Ambrosia elatior)
In short: as §1

[9] = tested on: panicum, fall (fall panicum, Panicum dichotomiflorum)
In short: as §1

[10] = tested on: corn (Zea mays)
In short: as §1

[11] = tested on: crabgrass, Brazilian (Brazilian crabgrass, Digitaria horizontalis)
In short: as §1

[12] = tested on: goosegrass (Eleusine indica); settings: Preemergence
In short: as §1

[13] = tested on: barnyardgrass (Echinochloa crus-galli)
In short: as §1

[14] = 62 g ai/ha, Postemergence, scale 0 to 100 (0 no effect, 100 complete control)
[15] = 62 g ai/ha, Preemergence, scale 0 to 100 (0 no effect, 100 complete control)
[16] = 125 g ai/ha, Postemergence, scale 0 to 100 (0 no effect, 100 complete control)
[17] = 125 g ai/ha, Preemergence, scale 0 to 100 (0 no effect, 100 complete control)
[18] = 250 g ai/ha, Postemergence, scale 0 to 100 (0 no effect, 100 complete control)
[19] = Postemergence, 31 g ai/ha, visual, scale 0 no effect to 100 complete control
[20] = Preemergence, 31 g ai/ha, scale 0 to 100, 0 no effect, 100 complete control
[21] = Preemergence, 250 g ai/ha, visual, scale 0 no effect to 100 complete control
[22] = 125 g ai/ha, scale 0 to 100 (0 no effect, 100 complete control)
[23] = 31 g ai/ha, scale 0 to 100, 0 no effect, 100 complete control
[24] = 250 g ai/ha, visual, scale 0 no effect to 100 complete control
[25] = Preemergence, 125 g ai/ha, visual, scale 0 no effect to 100 complete control
[26] = 62 g ai/ha, scale 0 to 100 (0 no effect, 100 complete control)
[27] = 125 g ai/ha, visual, scale 0 no effect to 100 complete control

## CCc1sc2ccc(C)cc2c1-c1c(O)c(C)nn(C)c1=O [Compound 47]
[1]; [14]
  Plant response rating, Waterhemp: 80
[1]; [15]
  Plant response rating, Waterhemp: 90
[1]; [16]
  Plant response rating, Waterhemp: 85
[1]; [17]
  Plant response rating, Waterhemp: 90
[1]; [18]
  Plant response rating, Waterhemp: 100
[1]; [19]
  Plant response rating, Waterhemp: 75
[1]; [20]
  Plant response rating, Waterhemp: 50
[1]; [21]
  Plant response rating, Waterhemp: 100
[2]; [22]
  Plant response rating, Nutsedge, Yellow: 30
[2]; [23]
  Plant response rating, Nutsedge, Yellow: 0
[2]; [24]
  Plant response rating, Nutsedge, Yellow: 35
[3]; [14]
  Plant response rating, Field Bindweed: 75
[3]; [15]
  Plant response rating, Field Bindweed: 50
[3]; [16]
  Plant response rating, Field Bindweed: 85
[3]; [18]
  Plant response rating, Field Bindweed: 90
[3]; [19]
  Plant response rating, Field Bindweed: 70
[3]; [20]
  Plant response rating, Field Bindweed: 50
[3]; [25]
  Plant response rating, Field Bindweed: 90
[3]; [21]
  Plant response rating, Field Bindweed: 100
[4]; [26]
  Plant response rating, Surinam Grass: 0
[4]; [22]
  Plant response rating, Surinam Grass: 35
[4]; [23]
  Plant response rating, Surinam Grass: 0
[4]; [24]
  Plant response rating, Surinam Grass: 35
[5]; [26]
  Plant response rating, Lambsquarters: 100
[5]; [23]
  Plant response rating, Lambsquarters: 100
[5]; [27]
  Plant response rating, Lambsquarters: 100
[5]; [24]
  Plant response rating, Lambsquarters: 100
[6]; [14]
  Plant response rating, Sandbur: 20
[6]; [15]
  Plant response rating, Sandbur: 0
[6]; [16]
  Plant response rating, Sandbur: 25
[6]; [17]
  Plant response rating, Sandbur: 10
[6]; [18]
  Plant response rating, Sandbur: 35
[6]; [19]
  Plant response rating, Sandbur: 20
[6]; [20]
  Plant response rating, Sandbur: 0
[6]; [21]
  Plant response rating, Sandbur: 70
[7]; [14]
  Plant response rating, Beggarticks: 100
[7]; [15]
  Plant response rating, Beggarticks: 100
[7]; [16]
  Plant response rating, Beggarticks: 98
[7]; [18]
  Plant response rating, Beggarticks: 98
[7]; [19]
  Plant response rating, Beggarticks: 85
[7]; [20]
  Plant response rating, Beggarticks: 100
[7]; [25]
  Plant response rating, Beggarticks: 100
[7]; [21]
  Plant response rating, Beggarticks: 100
[8]; [14]
  Plant response rating, Ragweed: 90
[8]; [15]
  Plant response rating, Ragweed: 95
[8]; [16]
  Plant response rating, Ragweed: 95
[8]; [17]
  Plant response rating, Ragweed: 98
[8]; [18]
  Plant response rating, Ragweed: 95
[8]; [19]
  Plant response rating, Ragweed: 80
[8]; [20]
  Plant response rating, Ragweed: 80
[8]; [21]
  Plant response rating, Ragweed: 100
[9]; [14]
  Plant response rating, Panicum, Fall: 55
[9]; [15]
  Plant response rating, Panicum, Fall: 50
[9]; [16]
  Plant response rating, Panicum, Fall: 55
[9]; [17]
  Plant response rating, Panicum, Fall: 80
[9]; [18]
  Plant response rating, Panicum, Fall: 70
[9]; [19]
  Plant response rating, Panicum, Fall: 40
[9]; [20]
  Plant response rating, Panicum, Fall: 50
[9]; [21]
  Plant response rating, Panicum, Fall: 95
[10]; [14]
  Plant response rating, Corn: 5
[10]; [15]
  Plant response rating, Corn: 0
[10]; [16]
  Plant response rating, Corn: 5
[10]; [18]
  Plant response rating, Corn: 20
[10]; [19]
  Plant response rating, Corn: 0
[10]; [20]
  Plant response rating, Corn: 0
[10]; [25]
  Plant response rating, Corn: 0
[10]; [21]
  Plant response rating, Corn: 0
[11]; [14]
  Plant response rating, Crabgrass, Brazil: 20
[11]; [15]
  Plant response rating, Crabgrass, Brazil: 0
[11]; [16]
  Plant response rating, Crabgrass, Brazil: 25
[11]; [18]
  Plant response rating, Crabgrass, Brazil: 40
[11]; [19]
  Plant response rating, Crabgrass, Brazil: 20
[11]; [20]
  Plant response rating, Crabgrass, Brazil: 0
[11]; [25]
  Plant response rating, Crabgrass, Brazil: 0
[11]; [21]
  Plant response rating, Crabgrass, Brazil: 60
[12]; [26]
  Plant response rating, Goosegrass: 0
[12]; [23]
  Plant response rating, Goosegrass: 0
[12]; [27]
  Plant response rating, Goosegrass: 0
[12]; [24]
  Plant response rating, Goosegrass: 0
[13]; [14]
  Plant response rating, Barnyardgrass: 30
[13]; [15]
  Plant response rating, Barnyardgrass: 0
[13]; [16]
  Plant response rating, Barnyardgrass: 40
[13]; [18]
  Plant response rating, Barnyardgrass: 60
[13]; [19]
  Plant response rating, Barnyardgrass: 10
[13]; [20]
  Plant response rating, Barnyardgrass: 0
[13]; [25]
  Plant response rating, Barnyardgrass: 50
[13]; [21]
  Plant response rating, Barnyardgrass: 95

## CCc1sc2c(C)cc(C)cc2c1-c1c(O)c(C)nn(C)c1=O [Compound 57]
[1]; [14]
  Plant response rating, Waterhemp: 50
[1]; [15]
  Plant response rating, Waterhemp: 75
[1]; [16]
  Plant response rating, Waterhemp: 30
[1]; [17]
  Plant response rating, Waterhemp: 40
[1]; [18]
  Plant response rating, Waterhemp: 75
[1]; [19]
  Plant response rating, Waterhemp: 50
[1]; [20]
  Plant response rating, Waterhemp: 80
[1]; [21]
  Plant response rating, Waterhemp: 80
[2]; [26]
  Plant response rating, Nutsedge, Yellow: 30
[2]; [22]
  Plant response rating, Nutsedge, Yellow: 60
[2]; [23]
  Plant response rating, Nutsedge, Yellow: 0
[2]; [24]
  Plant response rating, Nutsedge, Yellow: 70
[3]; [14]
  Plant response rating, Field Bindweed: 95
[3]; [15]
  Plant response rating, Field Bindweed: 95
[3]; [16]
  Plant response rating, Field Bindweed: 98
[3]; [18]
  Plant response rating, Field Bindweed: 95
[3]; [19]
  Plant response rating, Field Bindweed: 85
[3]; [20]
  Plant response rating, Field Bindweed: 70
[3]; [25]
  Plant response rating, Field Bindweed: 98
[3]; [21]
  Plant response rating, Field Bindweed: 100
[4]; [26]
  Plant response rating, Surinam Grass: 70
[4]; [22]
  Plant response rating, Surinam Grass: 85
[4]; [23]
  Plant response rating, Surinam Grass: 5
[4]; [24]
  Plant response rating, Surinam Grass: 95
[5]; [26]
  Plant response rating, Lambsquarters: 100
[5]; [23]
  Plant response rating, Lambsquarters: 100
[5]; [27]
  Plant response rating, Lambsquarters: 100
[5]; [24]
  Plant response rating, Lambsquarters: 100
[6]; [14]
  Plant response rating, Sandbur: 60
[6]; [15]
  Plant response rating, Sandbur: 0
[6]; [16]
  Plant response rating, Sandbur: 65
[6]; [17]
  Plant response rating, Sandbur: 30
[6]; [18]
  Plant response rating, Sandbur: 70
[6]; [19]
  Plant response rating, Sandbur: 50
[6]; [20]
  Plant response rating, Sandbur: 0
[6]; [21]
  Plant response rating, Sandbur: 80
[7]; [14]
  Plant response rating, Beggarticks: 100
[7]; [15]
  Plant response rating, Beggarticks: 100
[7]; [16]
  Plant response rating, Beggarticks: 100
[7]; [18]
  Plant response rating, Beggarticks: 100
[7]; [19]
  Plant response rating, Beggarticks: 100
[7]; [20]
  Plant response rating, Beggarticks: 100
[7]; [25]
  Plant response rating, Beggarticks: 100
[7]; [21]
  Plant response rating, Beggarticks: 100
[8]; [14]
  Plant response rating, Ragweed: 60
[8]; [15]
  Plant response rating, Ragweed: 100
[8]; [16]
  Plant response rating, Ragweed: 95
[8]; [17]
  Plant response rating, Ragweed: 100
[8]; [18]
  Plant response rating, Ragweed: 95
[8]; [19]
  Plant response rating, Ragweed: 50
[8]; [20]
  Plant response rating, Ragweed: 90
[8]; [21]
  Plant response rating, Ragweed: 100
[9]; [14]
  Plant response rating, Panicum, Fall: 60
[9]; [15]
  Plant response rating, Panicum, Fall: 98
[9]; [16]
  Plant response rating, Panicum, Fall: 70
[9]; [17]
  Plant response rating, Panicum, Fall: 100
[9]; [18]
  Plant response rating, Panicum, Fall: 80
[9]; [19]
  Plant response rating, Panicum, Fall: 40
[9]; [20]
  Plant response rating, Panicum, Fall: 95
[9]; [21]
  Plant response rating, Panicum, Fall: 100
[10]; [14]
  Plant response rating, Corn: 10
[10]; [15]
  Plant response rating, Corn: 0
[10]; [16]
  Plant response rating, Corn: 15
[10]; [18]
  Plant response rating, Corn: 15
[10]; [19]
  Plant response rating, Corn: 15
[10]; [20]
  Plant response rating, Corn: 0
[10]; [25]
  Plant response rating, Corn: 0
[10]; [21]
  Plant response rating, Corn: 0
[11]; [14]
  Plant response rating, Crabgrass, Brazil: 20
[11]; [15]
  Plant response rating, Crabgrass, Brazil: 0
[11]; [16]
  Plant response rating, Crabgrass, Brazil: 20
[11]; [18]
  Plant response rating, Crabgrass, Brazil: 30
[11]; [19]
  Plant response rating, Crabgrass, Brazil: 15
[11]; [20]
  Plant response rating, Crabgrass, Brazil: 0
[11]; [25]
  Plant response rating, Crabgrass, Brazil: 40
[11]; [21]
  Plant response rating, Crabgrass, Brazil: 70
[12]; [26]
  Plant response rating, Goosegrass: 0
[12]; [23]
  Plant response rating, Goosegrass: 10
[12]; [27]
  Plant response rating, Goosegrass: 5
[12]; [24]
  Plant response rating, Goosegrass: 5
[13]; [14]
  Plant response rating, Barnyardgrass: 85
[13]; [15]
  Plant response rating, Barnyardgrass: 0
[13]; [16]
  Plant response rating, Barnyardgrass: 90
[13]; [18]
  Plant response rating, Barnyardgrass: 90
[13]; [19]
  Plant response rating, Barnyardgrass: 80
[13]; [20]
  Plant response rating, Barnyardgrass: 0
[13]; [25]
  Plant response rating, Barnyardgrass: 75
[13]; [21]
  Plant response rating, Barnyardgrass: 100
